Test system: patients after acute myocardial infarction
Assay: Life quality, Seattle Angina Questionnaire (SAQ), same clinical trial
Assay type: in vivo, human
Details: 1 month after treatment
Description: 3508 patients who were in accordance with the diagnostic standards of AMI for 28 days to 2 years and differentiated as Qi deficiency and blood stagnation syndrome by TCM were studied. 0.5 g Chinese medicine composition prepared by the method of EXAMPLE 1 (Coded as QSYQ) was administrated half an hour after meal, 3 times per day.
There were 19 questions in the Seattle angina questionnaire (SAQ), including 5 parts: physical limitation (PL), anginal stability (AS), anginal frequency (AF), treatment satisfaction (TS) and disease perception (DP). After being given necessary explanation by doctors, the questions were answered independently by patients.
They included the overall survival time, angina pectoris score, TCM symptom score and life quality score, where angina pectoris score, TCM symptom score and life quality score were evaluated at randomization, in 1st, 3rd, 6th, 9th, 12th month after treatment and 18th month after follow-up.
All evaluation results of SAQ were described during the period of observation, and Wilcoxon rank sum test was used for inter-group comparison.
The evaluation results in the SAQ were depicted in different observations, and inter-group comparison was tested by Wilcoxon Rank-sum test.

CC(=O)Oc1ccccc1C(=O)O [Control group, aspirine]
SAQ 2nd question: Clearly increased, % of cases (FAS): (0.92%) | SAQ 2nd question: Clearly increased, cases (FAS): 16 | SAQ 2nd question: Clearly reduced, % of cases (FAS): (16.50%) | SAQ 2nd question: Clearly reduced, cases (FAS): 287 | SAQ 2nd question: Same, % of cases (FAS): (49.05%) | SAQ 2nd question: Same, cases (FAS): 853 | SAQ 2nd question: Slightly increased, % of cases (FAS): (3.05%) | SAQ 2nd question: Slightly increased, cases (FAS): 53 | SAQ 2nd question: Slightly reduced, % of cases (FAS): (30.48%) | SAQ 2nd question: Slightly reduced, cases (FAS): 530 | SAQ 3rd question: 1-2 times per week, % of cases (FAS): (30.48%) | SAQ 3rd question: 1-2 times per week, cases (FAS): 530 | SAQ 3rd question: 1-3 times per day, % of cases (FAS): (3.05%) | SAQ 3rd question: 1-3 times per day, cases (FAS): 53 | SAQ 3rd question: <1 time per week, % of cases (FAS): (16.50%) | SAQ 3rd question: <1 time per week, cases (FAS): 287 | SAQ 3rd question: No onset, % of cases (FAS): (0.00%) | SAQ 3rd question: No onset, cases (FAS): 0 | SAQ 3rd question: ≧3 times per week, % of cases (FAS): (49.05%) | SAQ 3rd question: ≧3 times per week, cases (FAS): 853 | SAQ 3rd question: ≧4 times per day, % of cases (FAS): (0.92%) | SAQ 3rd question: ≧4 times per day, cases (FAS): 16 | SAQ Question 1-3: Mildly limited, number of patients (FAS): 126 | SAQ Question 1-3: Mildly limited, percent of patients (FAS): (7.23%) | SAQ Question 1-3: Moderately limited, number of patients (FAS): 34 | SAQ Question 1-3: Moderately limited, percent of patients (FAS): (1.95%) | SAQ Question 1-3: Not limited, number of patients (FAS): 1261 | SAQ Question 1-3: Not limited, percent of patients (FAS): (72.39%) | SAQ Question 1-3: Other reasons, number of patients (FAS): 9 | SAQ Question 1-3: Other reasons, percent of patients (FAS): (0.52%) | SAQ Question 1-3: Severely limited, number of patients (FAS): 5 | SAQ Question 1-3: Severely limited, percent of patients (FAS): (0.29%) | SAQ Question 1-3: Slightly limited, number of patients (FAS): 307 | SAQ Question 1-3: Slightly limited, percent of patients (FAS): (17.62%) | SAQ Question 1-4: Mildly limited, number of patients (FAS): 349 | SAQ Question 1-4: Mildly limited, percent of patients (FAS): (20.05%) | SAQ Question 1-4: Moderately limited, number of patients (FAS): 159 | SAQ Question 1-4: Moderately limited, percent of patients (FAS): (9.13%) | SAQ Question 1-4: Not limited, number of patients (FAS): 618 | SAQ Question 1-4: Not limited, percent of patients (FAS): (35.50%) | SAQ Question 1-4: Other reasons, number of patients (FAS): 12 | SAQ Question 1-4: Other reasons, percent of patients (FAS): (0.69%) | SAQ Question 1-4: Severely limited, number of patients (FAS): 35 | SAQ Question 1-4: Severely limited, percent of patients (FAS): (2.01%) | SAQ Question 1-4: Slightly limited, number of patients (FAS): 568 | SAQ Question 1-4: Slightly limited, percent of patients (FAS): (32.62%) | SAQ Question 1-5: Mildly limited, number of patients (FAS): 315 | SAQ Question 1-5: Mildly limited, percent of patients (FAS): (18.09%) | SAQ Question 1-5: Moderately limited, number of patients (FAS): 196 | SAQ Question 1-5: Moderately limited, percent of patients (FAS): (11.26%) | SAQ Question 1-5: Not limited, number of patients (FAS): 648 | SAQ Question 1-5: Not limited, percent of patients (FAS): (37.22%) | SAQ Question 1-5: Other reasons, number of patients (FAS): 10 | SAQ Question 1-5: Other reasons, percent of patients (FAS): (0.57%) | SAQ Question 1-5: Severely limited, number of patients (FAS): 32 | SAQ Question 1-5: Severely limited, percent of patients (FAS): (1.84%) | SAQ Question 1-5: Slightly limited, number of patients (FAS): 540 | SAQ Question 1-5: Slightly limited, percent of patients (FAS): (31.02%) | SAQ Question 1-9: Mildly limited, % of cases (FAS): (16.68%) | SAQ Question 1-9: Mildly limited, cases (FAS): 284 | SAQ Question 1-9: Moderately limited, % of cases (FAS): (21.02%) | SAQ Question 1-9: Moderately limited, cases (FAS): 358 | SAQ Question 1-9: Not limited, % of cases (FAS): (2.88%) | SAQ Question 1-9: Not limited, cases (FAS): 49 | SAQ Question 1-9: Other reasons, % of cases (FAS): (6.17%) | SAQ Question 1-9: Other reasons, cases (FAS): 105 | SAQ Question 1-9: Severely limited, % of cases (FAS): (41.93%) | SAQ Question 1-9: Severely limited, cases (FAS): 714 | SAQ Question 1-9: Slightly limited, % of cases (FAS): (11.33%) | SAQ Question 1-9: Slightly limited, cases (FAS): 193 | SAQ 2nd question: Clearly increased, % of cases (PP): (0.54%) | SAQ 2nd question: Clearly increased, cases (PP): 8 | SAQ 2nd question: Clearly reduced, % of cases (PP): (16.75%) | SAQ 2nd question: Clearly reduced, cases (PP): 248 | SAQ 2nd question: Same, % of cases (PP): (49.63%) | SAQ 2nd question: Same, cases (PP): 735 | SAQ 2nd question: Slightly increased, % of cases (PP): (2.90%)

From patent publication US9211310B2, “Use of a Chinese medicine composition in preparing medicaments for treating secondary prevention of myocardial infarction” (TASLY PHARMACEUTICAL GROUP CO., LTD, priority 2010, dated 2015)
